The values that follow come from patent US20120065123A1, “Synthetic Antibodies” (priority 2009, published 2012).

Read-outs that look alike come from different tables or passages of the source. Where no end group is shown, it is not given here.

Type in all cases: binding
Assay [1] concerns the target T1, Transferrin (Homo sapiens, UniProt P02787). In words: SPR steady state affinity of mRNA display clones (Biacore T100). The settings on record: for Kd: steady state affinity model. As to the method:
Five clones (see Table 15) were selected, synthesized and purified by HPLC for characterization by surface plasmon resonance (SPR) (T 100 instrument from Biacore). Transferrin was immobilized using standard NHS/EDC immobilization chemistry according to the methods described in Frostell-Karlsson, A., Remaeus, A., Andersson, K., Borg, P., Hamalainen, M., and Karlsson, R. (2000) J. Med. Chem. 43, resulting in 9758 RU of immobilized protein. HPLC purified peptides were injected over the surface and sensograms were recorded at multiple concentrations (32, 16, 8, 4, 2, 1, 0.5, 0.25, 0.125, and 0.0625 μM). Affinity plots were generated for each peptide and fit using a steady state affinity model.
A general note: Surface plasmon resonance follows binding to a sensor surface in real time, without labels.

Assay [2] addresses T1, Transferrin. In words: SPR solution phase KD of candidate affinity elements, transferrin immobilized (Biacore T100). The settings on record: steady-state response, 25° C., PBST. As to the method: Transferrin 25 μg/ml in immobilization buffer selected for correct pH was then applied 302 at a flow rate of 5 to 10 μl/min for a contact time of about 5 to 10 minutes, allowing the amine functionality on the transferrin 308 to displace the activated NHS ester and bond to the surface via an amide bond. Finally, ethylene diamine (1M ethylene diamine-HCl at pH 8.5) was applied 304 at a flow rate of 5 to 10 μl/min for a contact time of about 6 to 7 minutes to deactivate any remaining reactive groups on the dextran chip surface. Flow rates and contact times are adjusted as necessary to provide the surface concentration of target desired for the intended application, and may vary by target. In general, for evaluating whether binding occurs, it is preferable to immobilize a relatively large quantity of target, and higher flow rates and/or longer contact times may be used. For determining kinetics, it is preferable to limit the amount of target immobilized so as to minimize rebinding and avidity effects, and lower flow rates and/or contact times may be used.
Candidate affinity elements for the transferrin synbody TRF19, TRF21, TRF23, TRF24, TRF25, and TRF26 were individually evaluated for solution phase KD with respect to transferrin by SPR analysis. Because the off rates for these polypeptides were very high, KD values were estimated by measuring steady-state response for at least five concentrations in a two-fold dilution series, each concentration tested in duplicate. For each experiment, response data were processed using a reference surface to correct for bulk refractive index changes and any non-specific binding. Data were also double referenced using responses from blank running buffer injections. Each experiment was conducted at 25° C. using PBST (0.01M Phosphate Buffered Saline, 0.138M NaCl, 0.0027M KCl, 0.05% surfactant Tween20, pH 7.4) as the running buffer on a Biacore T100 instrument. Analytes were injected for 60 s at a flow rate of 30 μl/min. The antigen surfaces were regenerated with 30 s consecutive pulses of NaOH/NaCl (50 mM NaOH in 1M NaCl) and Glycine (10 mM glycine-HCl, pH 2.5).

The target in assay [3] is T1, Transferrin. The experiment in a line: Peptide microarray ranking, labeled transferrin with E. coli lysate competitor. The settings on record: for Rank -- prewash: array with organic prewash; for Rank - non-prewash: array without organic prewash. As for the experimental part: Several polypeptides were identified as candidate affinity elements for synbodies against an arbitrarily chosen protein target, transferrin, by incubating transferrin on the polypeptide microarray in the presence of E. coli lysate competitor. Transferrin was randomly direct-labeled at free amines with Alexa™ 555, and E. coli lysate was randomly direct-labeled at free amines with Alexa™ 647. Three replicate arrays were passivized by applying a mixture of BSA and mercaptohexanol for one hour. The arrays were blocked with unlabelled E. coli lysate for one hour, then washed three times with TBST (0.05% Tween) followed by three times with water. A mixture of labeled transferrin and labeled E. coli lysate was applied to the three replicate arrays and incubated for three hours. The arrays were again washed three times with TBST (0.05% Tween) followed by three times with water, and scanned at 555 nm and 647 nm using an array reader. Polypeptides were ranked as candidates for inclusion as affinity elements of synbodies by computing a score for each polypeptide equal to the mean raw 555 nm intensity over the six replicate features, squared, divided by the mean raw 647 nm intensity over the six replicate features. This simple scoring function tends to favor candidate polypeptides that bind at least moderate affinity, since otherwise the 555 nm intensity would be relatively lower, and that are relatively specific, since otherwise the 647 nm intensity would be relatively higher and contribute to a relatively lower score. Many variations of this ranking and identification process can be used, such as, by way of non-limiting examples, two-color comparisons against other competitors; comparisons with data taken in separate experiments with respect to other targets; and use of scoring functions taking into account other factors, employing other functional relationships, and/or involving statistical analysis and/or preprocessing of data and/or correcting for background fluorescence and/or other factors affecting the accuracy of the measured intensities. Ten polypeptides (Table 1) were identified for further evaluation for use as affinity elements in synbodies by choosing the polypeptides having the highest score (one polypeptide was rejected as difficult to synthesize, so the polypeptides chosen were ten of those having the eleven highest scores).
After preparation of the array in accordance with the methods previously described in Example 2, the array was washed one time for five minutes in 7.33% acetonitrile, 37% isopropanol, 0.55% trifluoroacetic acid, and 55% water. Alexa 555 labeled target protein transferrin was applied, together with Alexa 647 labeled E. coli lysate competitor, to the prewashed array and to an identical array without organic prewash. […] 5,010 on the array without organic prewash, but ranked no. 9601 on the prewashed array. Conversely, peptide TRF-21, shown by SPR analysis to be a relatively strong binder of transferrin, rose in rank from 84 on the non-prewashed array to rank no. 5 on the prewashed array.

For a further assay, the target named is TNF-α (Homo sapiens, UniProt P01375). In words: SPR of TNF1 lead and mutant peptides on captured TNF-α (Biacore A100). The note with it: for Binding ΔG (observed): calculated from dissociation constants; for Predicted Binding ΔG: sum of component contributions, energetic additivity. From the text: Scanning Mutagenesis of the TNF1 Lead Peptide. After lead identification, the next step in the AMPLI algorithm is characterization of point mutations in the lead heteropolymer. Using short peptides makes it chemically feasible to synthesize a significant fraction of the point-mutant space, which can then be screened for enhanced point mutations. For example, all possible point mutations in the 17 randomized positions using all 20 natural amino acids could be synthesized and screened within a single 384-well plate (323 total point-mutants). However, libraries containing all 20 natural amino acids are not required for affinity optimization of protein-protein interactions. A library of TNF1 point-mutants containing all substitutions of the amino acid set {Y, A, D, S, K, N, V, W} in each of the 17 randomized positions (132 unique point-mutants) was synthesized. Tyrosine (Y), alanine (A), aspartic acid (D) and serine (S) were selected because of their effectiveness in producing high affinity interactions when substituted into the complementary-determining regions (CDRs) of synthetic antibodies (Felouse, Proceedings of the National Academy of Sciences 101(34):12467, 2004), lysine (K) was selected to balance the charge in the substitution set, asparagine (N), valine (V) and tryptophan (W) were selected to span the hydropathicity range (Kyte J & Doolittle R F, Journal of Molecular Biology 157(1):105-132, 1982). […] This concentration was used to increase the high-end dynamic range for quantifying enhancing point mutations at the expense of low-end dynamic range for quantifying detrimental point mutations.
Sequence of TNF-α (P01375 77-233 limits assumed, species assumed): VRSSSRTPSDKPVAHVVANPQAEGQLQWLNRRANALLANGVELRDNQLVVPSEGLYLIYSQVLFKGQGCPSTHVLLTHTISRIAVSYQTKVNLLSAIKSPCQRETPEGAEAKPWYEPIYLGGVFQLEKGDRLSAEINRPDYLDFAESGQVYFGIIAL
Point-mutant libraries were prepared in 96-well stock plates From the stock plate, peptides were diluted to 50 μM concentration in Biacore HBS-EP buffer (GE Healthcare, Piscataway, N.J.) containing 1 mg/ml carboxymethyl-dextran (Sigma-Aldrich, St. Louis, Mo.) to reduce non-specific binding to the CM-5 SPR chip surface. TNF-α was captured on a CM-5 chip surface at different capture levels on spots 1, 2, 4, and 5 across all four flow cells corresponding to a 40-200 RU range of predicted Rmax binding responses. Spot 3 contained only immobilized neutravidin and served as a reference spot.
Using the prepared 96-well plates and Biacore A100 SPR instrument, four peptides were flowed separately, in parallel, through the four flow cells over all 4 TNF-α spots and the neutravidin reference spot, with a 60 second association phase and 300 second dissociation phase. SPR sensorgrams were recorded for each peptide response with all 4 TNF-α spots and the neutravidin reference spot across the four flow cells on the SPR chip. Surface regeneration was performed after every 12 injections in each flow cell with Biacore Glycine 2.5 regeneration solution (GE Healthcare, Piscataway, N.J.). Point-mutant reference subtracted, peptide molecular weight adjusted, responses at the late binding region of the sensorgram (a few seconds before dissociation) were compared to the response of the TNF1 lead
Purified point-mutant affinities were measured on the Biacore A100 using SPR equilibrium binding response across a series of peptide concentrations on an SPR chip with TNF-α captured as described above.
These sequences were synthesized and purified using standard solid-phase FMOC synthesis and HPLC purification.

[4] abbreviates: SPR equilibrium binding response, read-out: Kd (observed).
Where [5] appears, read: energetic additivity of component mutations, read-out: Predicted Kd.

T1 sequence (P02787 20-698): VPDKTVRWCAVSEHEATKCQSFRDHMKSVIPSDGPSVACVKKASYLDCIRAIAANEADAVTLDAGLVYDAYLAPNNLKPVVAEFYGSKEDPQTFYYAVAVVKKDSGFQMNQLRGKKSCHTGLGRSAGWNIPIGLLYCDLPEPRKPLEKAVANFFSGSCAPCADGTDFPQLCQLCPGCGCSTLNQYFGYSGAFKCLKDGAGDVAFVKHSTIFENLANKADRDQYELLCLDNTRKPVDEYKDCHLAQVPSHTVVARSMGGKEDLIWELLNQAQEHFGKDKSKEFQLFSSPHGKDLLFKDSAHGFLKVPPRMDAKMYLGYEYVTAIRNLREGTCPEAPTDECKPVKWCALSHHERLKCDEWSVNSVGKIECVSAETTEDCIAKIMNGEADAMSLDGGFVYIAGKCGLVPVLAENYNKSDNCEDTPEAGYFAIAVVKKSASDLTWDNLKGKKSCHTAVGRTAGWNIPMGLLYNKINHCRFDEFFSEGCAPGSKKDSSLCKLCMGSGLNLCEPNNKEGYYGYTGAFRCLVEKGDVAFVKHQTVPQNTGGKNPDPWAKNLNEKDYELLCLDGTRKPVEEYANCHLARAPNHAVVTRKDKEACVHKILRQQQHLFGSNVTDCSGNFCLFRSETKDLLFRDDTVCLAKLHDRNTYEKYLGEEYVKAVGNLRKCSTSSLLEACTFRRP

For the sequence AHKVVPQRQMRHAYSRYGSC [TBPM023], on Transferrin [1], the “fold improvement of affinity in comparison to TRF26” value was “more than 10 fold” and the affinity, expressed as Kd, was 11.6 µM.
In turn, APYAPQQIHYWSTLGFKGSC [TRF25] showed a dissociation constant Kd at Transferrin [2] of about 60 µM. On Transferrin [3], this sequence came in with a Rank -- prewash of 603 and a Rank - non-prewash of 736.
For the sequence FERDPLMMPWKFLQSRQGSC [Synbody S11K], at TNF-α, the “Component Binding ΔG Contribution” value is -0.82 ± 0.13 kcal/mol, the “Kd Fold-Change Relative to Lead” value was 3.9 ± 0.9 and the “Binding ΔG (observed)” value was -6.03 ± -.10 kcal/mol. Moreover, the Kd at TNF-α (setting [4]) was 40 ± 7.2 µM.
As for FERDPLMMPWSFLQSRQGSC [TNF1], the “Binding ΔG (observed)” value at TNF-α was -5.21 ± 0.07 kcal/mol.
Turning to FERSYLMMPWKFLQSRQGSC [D4S + P5Y + S11K], on TNF-α, the “Kd Fold-Change Relative to Lead” value stood at 23 ± 3.2, the “observed binding energy difference to the D4S+P5Y+M7K+S11K quadruple mutant” value was -0.94 ± 0.12 kcal/mol, the “Binding ΔG (observed)” value is -7.03 ± 0.04 kcal/mol and the “Predicted Binding ΔG” value is -7.38 ± 0.19 kcal/mol. At TNF-α (setting [4]), the Kd worked out at 7 ± 0.5 µM. Also, the dissociation constant (Kd) on TNF-α (setting [5]) was 2.8 to 5.3 µM.
Regarding FERYPLKMPWSFLQSRQGSC [D4Y + M7K], on TNF-α, the “Kd Fold-Change Relative to Lead” value is given as 9.4 ± 1.6, the “Binding ΔG (observed)” value is -6.54 ± 0.07 kcal/mol and the “Predicted Binding ΔG” value is -6.66 ± 0.25 kcal/mol. Also, at TNF-α (setting [4]), the dissociation constant (Kd) is 17 ± 1.9 µM. The Kd at TNF-α (setting [5]) was 8.5 to 20 µM.
Regarding FERYPLMMPWKFLQSRQGSC [D4Y + S11K], at TNF-α, the “Kd Fold-Change Relative to Lead” value turned out to be 17 ± 2.5 and the “Binding ΔG (observed)” value is -6.67 ± 0.05 kcal/mol. On TNF-α (setting [4]), the equilibrium dissociation constant (Kd) was determined as 9.3 ± 0.7 µM. Moreover, the Kd at TNF-α (setting [5]) is 8 to 15 µM.
Take FERYPLMMPWSFLQSRQGSC [Synbody D4Y]: on TNF-α, the “Component Binding ΔG Contribution” value was -0.74 ± 0.10 kcal/mol, the “Kd Fold-Change Relative to Lead” value worked out at 3.6 ± 0.6 and the “Binding ΔG (observed)” value is -5.95 ± 0.06 kcal/mol. Besides, the Kd at TNF-α (setting [4]) amounted to 44 ± 4.8 µM.
GHKVVPQRQIRHAYNRYGSC [TBPL005] displayed a Kd on Transferrin [1] of 150 µM.
The same measure, in the same setting: the figure for GHKVVPQRQMRHAYNRNGSC [TBPL025] is 150 µM.
As to GQTQFAMHRFQQWYKIKGSC [TRF20], in the assay with Transferrin [3], the Rank -- prewash amounted to 289 and the Rank - non-prewash is 18.
Turning to HAYKGPGDMRRFNHSGMGSC [TRF22], in the assay with Transferrin [3], the Rank -- prewash is given as 61 and the Rank - non-prewash amounted to 711.
For the sequence KEDNPGYSSEQDYNKLDGSC [TRF19], at Transferrin [2], the Kd is about 150 µM. Moreover, the Rank -- prewash at Transferrin [3] turned out to be 9601. For the same sequence, the results for the Rank - non-prewash at Transferrin [3] and at Transferrin [3] (listed as TRF-19) were 5010 and 5,010, respectively.
In the assay with Transferrin [3], LDPLFNTSIMVNWHRWMGSC [TRF27] showed a Rank -- prewash of 3325 and a Rank - non-prewash of 1289.
At Transferrin [2], QYHHFMNLKRQGRAQAYGSC [TRF21] registered a Kd of about 60 µM. On Transferrin [3], this sequence came in with a Rank -- prewash of 5 and a Rank - non-prewash of 84.
For SVKPWRPLITGNRWLNSGSC [TRF24], in that order: about 50 µM, 958 and 71.

As a reminder, the Kd is the equilibrium constant for the complex coming apart.
